The nature of data set [1]: Maximum soluble concentration / turbidity. The data set is classed as physicochemical. To be noted: for solubility: distilled water; for Maximum soluble concentration in PBS: lyophilized peptide reconstructed in PBS at 200-6.25 μM, visible turbidity checked every 12 h for 5 days, at least twice. The method, then: Supplementary Methods Bacteria preparation, Antimicrobial peptides preparation, Minimal-inhibitory-concentration measurements, Hemolysis-activity measurements, Tryptophan fluorescence measurements, Isothermal titration calorimetry measurements, Bacteria membrane ion permeation measurements, Outer-inner membrane permeation, Field-emission scanning electron microscopy and Antimicrobial kinetics were performed as described in Materials and Methods. Liposome (LUV) preparation. Bacterial-membrane-mimic DMPC/DMPG unilamellar vesicles (LUV) and mammalian- membrane-mimic PC/cholesterol vesicles with 100-nm diameters were prepared by extrusion. LiposoFast Liposome Factory Basic unit with stabilizer (Avestin, Ottawa, Canada) was used to extrude liposomes 50 times through a polycarbonate membrane filter (pore diameter, 100 nm; filter diameter, 0.75 inches) (Avestin). […] rac-(1-glycerol)) (sodium salt) (DMPG) (Avanti, Alabama, USA); 1,2-Dimyristoyl-sn-glycero-3-phosphocholine (DMPC) (Avanti); and cholesterol (Sigma, Darmstadt, Germany) were used. For circular dichroism, isothermal titration calorimetry, tryptophan fluorescence, and dynamic light scattering experiments, liposomes were reconstructed and resuspendedwith phosphate-buffered saline (PBS; Welgene Inc, Gyeongsangbuk-do, Korea). For calcein-permeation tests, liposomes were reconstructed with calcein solutions (80 mM, 40 mM, 30 mM, 20 mM, and 10 mM) (Sigma, Darmstadt, Germany), purified with Sephadex-G50 columns (Pharmacia biotech, Stockholm, Sweden), and resuspended with PBS. Maximum-soluble -concentration measurements. […] turbidity with PBS. The lowest concentration of peptide without visible turbidity was determined to be the maximu m soluble concentration. Each experiment was performed at least twice. Circular dichroism (CD) spectrum. DMPC/PG -liposome, PC/cholesterol -liposome, and peptide stock solutions were diluted in PBS. For circular dichroism, PBS with neither liposome nor peptides was also prepared. Liposomes and peptides were mixed to […] Samples were transferred into type J/1 cuvettes (Jasco, Tokyo, Japan). Cuvettes were placed into the J -815 circular -dichroism spectrometer (Jasco, Tokyo, Japan). Measurement parameters were as follows: wavelength, 190 -260 nm; data pitch, 0.2 nm; bandwidth, 1.00 nm; […] Each experiment was performed in triplicate. Data below 197 nm was not analyzed because o f experimental difficulties in obtaining those spectra. Each experiment was performed at least twice. Artificial membrane calcein permeation measurements. Calcein fluorescence was used to measure peptide -induced liposome permeation. Calcein solutions (10 mM, 20 mM, or 60 mM) containing PC/PG liposomes and peptides were diluted in PBS ( ×1, ×2, ×3, ×8). […] Liposome solutions (180 μl) were transferred to wells of black, clear -bottomed 96 -well plates (Costar, New York, USA). Peptide […] Liposome-containing plates and peptide -containing plates were inserted into a Flexstation 3 Multi -Mode Microplate Reader (Molecular Devices, California, USA). Peptide solutions (20 μl) were transferred and mixed with liposome solution automatical ly after 30 sec. […] Measurement parameters were as follows: excitation, 490 nm; emission, 520 nm; temperature, 37 °C. […] was transferred and mixed with the liposome -peptide solu tions automatically after 300 sec to acquire fluorescence at maximum leakage. […] Fluorescence measured between 0 -300 sec after addition of 0 μg/ml peptide was considered the baseline. Each experiment was performed at least twice. Dynamic light scattering (DLS) measurements. Dynamic light scattering was used to measure peptide -induced liposome volume changes. PC/PG -liposome stock solutions and peptides were resuspended in PBS. Liposomes and peptides were mixed to […]

Data set [2] concerns MDR S. aureus. Description: microbe, parasite or virus in culture. The settings on record: for MIC in 0.2% albumin and 0.01% AcOH added CLSI standard condition, MDR S. aureus: CAMHB plus 0.2% bovine serum albumin and 0.01% acetic acid, values marked * in Table 2; for Minimum inhibitory concentrations, MDR S. aureus: CLSI broth microdilution, CAMHB with 50 mg/L Ca2+, 10 mg/L Mg2+, 5 × 10^5 CFU/ml, 18 h 37 °C, triplicate, strain KCCM 40510. An outline of the steps: (§1)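 Broth microdilution per CLSI in cation-adjusted Mueller–Hinton broth with added calcium (50 mg/L) and magnesium (10 mg/L); mid-log bacteria at a final 5 × 10^5 CFU/ml were incubated with peptide for 18 h at 37 °C. MIC was the lowest concentration without visible turbidity, in triplicate.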

The test system of data set [3] is MDR A. baumannii. Description: microbe, parasite or virus in culture. The settings on record: for MIC in 0.2% albumin and 0.01% AcOH added CLSI standard condition, MDR A. baumannii: CAMHB plus 0.2% bovine serum albumin and 0.01% acetic acid, values marked * in Table 2; for Minimum inhibitory concentrations, MDR A. baumannii: CLSI broth microdilution, CAMHB with 50 mg/L Ca2+, 10 mg/L Mg2+, 5 × 10^5 CFU/ml, 18 h 37 °C, triplicate, strain ATCC BAA-1605. In short, it runs like this:
as §1
(In general: Dilution methods test growth across graded concentrations, often in twofold steps.)

Data set [4] relates to MDR P. aeruginosa. Description: microbe, parasite or virus in culture. The settings on record: for MIC in 0.2% albumin and 0.01% AcOH added CLSI standard condition, MDR P. aeruginosa: CAMHB plus 0.2% bovine serum albumin and 0.01% acetic acid, values marked * in Table 2; for Minimum inhibitory concentrations, MDR P. aeruginosa: CLSI broth microdilution, CAMHB with 50 mg/L Ca2+, 10 mg/L Mg2+, 5 × 10^5 CFU/ml, 18 h 37 °C, no visible turbidity, triplicate, strain CCARM 2180. In short, it runs like this: as §1

The test system of data set [5] is MDR E. faecalis. Description: microbe, parasite or virus in culture. The settings on record: for MIC in 0.2% albumin and 0.01% AcOH added CLSI standard condition, MDR E. faecalis: CAMHB plus 0.2% bovine serum albumin and 0.01% acetic acid, values marked * in Table 2; for Minimum inhibitory concentrations, MDR E. faecalis: CLSI broth microdilution, CAMHB with 50 mg/L Ca2+, 10 mg/L Mg2+, 5 × 10^5 CFU/ml, 18 h 37 °C, triplicate, strain ATCC 51575. In short, it runs like this: as §1

Data set [6] has as its system human red blood cells. The data set is described as follows: Hemolytic activity. Type of data set: cell-based. To be noted: red cells of human, 18 h. In short, it runs like this:
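Peptides (100 μM down to 0.78 μM) were incubated with 4% final human erythrocytes in PBS for 18 h at 37 °C. Supernatant absorbance at 540 nm after centrifugation was scaled to 1% Triton X-100 (100%) and no peptide (0%); melittin served as positive control; triplicate runs.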

Data set [7] deals with S. aureus. Details: method as in 7 sources, one per row (each row's own in cited_ref): ref 39 (a number printed in a supplementary file, which may have a reference list of its own: not looked up in the article's list) ||| ref 40 (a number printed in a supplementary file, which may have a reference list of its own: not looked up in the article's list) ||| ref 41 (a number printed in a supplementary file, which may have a reference list of its own: not looked up in the article's list) ||| ref 42 (a number printed in a supplementary file, which may have a reference list of its own: not looked up in the article's list) ||| ref 43 (a number printed in a supplementary file, which may have a reference list of its own: not looked up in the article's list) ||| ... To be noted: 1 × 10^5 ~ 3.5 × 10^5 cfu/ml, MHB; cited from earlier work.

Data set [8] concerns P. aeruginosa. Further details: method as in 7 sources, one per row (each row's own in cited_ref): ref 39 (a number printed in a supplementary file, which may have a reference list of its own: not looked up in the article's list) ||| ref 40 (a number printed in a supplementary file, which may have a reference list of its own: not looked up in the article's list) ||| ref 41 (a number printed in a supplementary file, which may have a reference list of its own: not looked up in the article's list) ||| ref 42 (a number printed in a supplementary file, which may have a reference list of its own: not looked up in the article's list) ||| ref 44 (a number printed in a supplementary file, which may have a reference list of its own: not looked up in the article's list) ||| ... To be noted: 1 × 10^5 ~ 3.5 × 10^5 cfu/ml, MHB; cited from earlier work.

Ends that are not written are not given here.

For the substance GVLVWFRRR-NH2 [Ptg C-ter 2], in data set [1], the solubility – broadly, the dissolved amount per volume that the medium holds – is less than 500 µM and the “Maximum soluble concentration in PBS” value was 100 µM. For the same substance, in data set [2], the “MIC in 0.2% albumin and 0.01% AcOH added CLSI standard condition, MDR S. aureus” value was more than 20 µM; the “Minimum inhibitory concentrations, MDR S. aureus” value is more than 20 µM. Moreover, in data set [3], the “MIC in 0.2% albumin and 0.01% AcOH added CLSI standard condition, MDR A. baumannii” value is more than 20 µM; the “Minimum inhibitory concentrations, MDR A. baumannii” value was more than 20 µM. In addition, in data set [4], the “MIC in 0.2% albumin and 0.01% AcOH added CLSI standard condition, MDR P. aeruginosa” value was more than 20 µM; the “Minimum inhibitory concentrations, MDR P. aeruginosa” value was more than 20 µM. Besides, in data set [5], the “MIC in 0.2% albumin and 0.01% AcOH added CLSI standard condition, MDR E. faecalis” value is more than 20 µM; the “Minimum inhibitory concentrations, MDR E. faecalis” value was more than 20 µM. Further, in data set [6], the “Hemolysis percent, 25 μM” value is on record as 0.52 ±0.05%; the “Hemolysis percent, 50 μM” value is on record as 1.14 ±0.02%; the “Hemolysis percent, 100 μM” value is given as 1.80 ±0.07%.
Turning to WLRRWWIRV-NH2 [HLWCopW29-2], the “Maximum soluble concentration in PBS” value in data set [1] was more than 200 µM. Also, the “MIC in 0.2% albumin and 0.01% AcOH added CLSI standard condition, MDR S. aureus” value in data set [2] came out at 10 µM. Moreover, the “MIC at TM potential condition, S. aureus KCCM 40510” value in data set [2] (bacteria OD 0.1 (5 x 10^7 cfu/ml), CAMHB, 1% DMSO) was more than 20 µM. Further, in data set [3], the “MIC in 0.2% albumin and 0.01% AcOH added CLSI standard condition, MDR A. baumannii” value turned out to be 2.5 µM; the “Minimum inhibitory concentrations, MDR A. baumannii” value worked out at 5 µM. In data set [4], the “MIC in 0.2% albumin and 0.01% AcOH added CLSI standard condition, MDR P. aeruginosa” value was more than 20 µM; the “Minimum inhibitory concentrations, MDR P. aeruginosa” value is more than 20 µM. Further, the “MIC in 0.2% albumin and 0.01% AcOH added CLSI standard condition, MDR E. faecalis” value in data set [5] came to 10 µM. Further, in data set [6], the “Hemolysis percent, 25 μM” value was 1.87 ±0.12%; the “Hemolysis percent, 50 μM” value was determined as 4.13 ±0.28%; the “Hemolysis percent, 100 μM” value was found to be 19.60 ±0.50%.
For the substance GVWVLFRRR-NH2 [Ptg C-ter 3], in data set [1], the solubility was less than 500 µM and the “Maximum soluble concentration in PBS” value amounted to 100 µM. Also, in data set [2], the “MIC in 0.2% albumin and 0.01% AcOH added CLSI standard condition, MDR S. aureus” value is more than 20 µM; the “Minimum inhibitory concentrations, MDR S. aureus” value is more than 20 µM. Further, in data set [3], the “MIC in 0.2% albumin and 0.01% AcOH added CLSI standard condition, MDR A. baumannii” value is more than 20 µM; the “Minimum inhibitory concentrations, MDR A. baumannii” value is more than 20 µM. Also, in data set [4], the “MIC in 0.2% albumin and 0.01% AcOH added CLSI standard condition, MDR P. aeruginosa” value is more than 20 µM; the “Minimum inhibitory concentrations, MDR P. aeruginosa” value is more than 20 µM. Moreover, in data set [5], the “MIC in 0.2% albumin and 0.01% AcOH added CLSI standard condition, MDR E. faecalis” value was more than 20 µM; the “Minimum inhibitory concentrations, MDR E. faecalis” value is more than 20 µM. In addition, in data set [6], the “Hemolysis percent, 25 μM” value was found to be 0.44 ±0.10%; the “Hemolysis percent, 50 μM” value amounted to 0.80 ±0.09%; the “Hemolysis percent, 100 μM” value worked out at 1.32 ±0.09%.
“KRRWRIWLV (not fully specified (C-terminus))”: the “MIC (Strain 2), S. aureus ATCC 25923” value in data set [7] was 1.5 µM. In data set [8], the “MIC (Strain 1), P. aeruginosa H103” value was 3.0 µM.

The values above are taken from article PMC9643456, “Matching amino acids membrane preference profile to improve activity of antimicrobial peptides” (Communications Biology, 2022).
